Earlier results, collected in patent publication US5908840A, “Hetero-biaryl-pyridoquinazolinone derivatives as anti-cancer agents” (American Cyanamid Company, priority 1997, dated 1999).

Assays:
[1] = system: P388; settings: Denny et al., Mutation Research 232: 233 (1990)
[2] = Denny et al., Mutation Research 232: 233 (1990)
[3] = Denny et al.; Ebeid et al.

Structure (SMILES): CN(C)CCNC(=O)c1cccn2c(=O)c3ccccc3nc12 [I, N-[2-(dimethylamino)ethyl]-11-oxo-11H-pyrido[2,1-b]quinalzoline-6-carboxamide]
- activity in a P388 mouse model [1]: inactive
- mutagenic activity [2]: mutagenic activity
- in vitro activity [3]: some in vitro activity
